One assay concerns the target c-kit kinase (Homo sapiens (Human), UniProt P10721). Kind of assay: c-Kit biochemical assay (AlphaScreen). Conditions: c-kit biochemical inhibitory activity. An outline of the steps: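 AlphaScreen of biotin-(E4Y)3 (100 nM) phosphorylation by c-kit (0.1 ng) in HEPES pH 7.2, Mg/Mn, 10 μM ATP, 5% DMSO, 1 h at room temperature; variant uses 100 μM ATP, 30 nM biotin-(E4Y)10, 1 ng enzyme. PY20 acceptor/streptavidin donor signal versus 8-point concentration gives IC50.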

The test system of assay [1] is BaF3-FL KIT D816V or BaF3-FL KIT V560G/D816V cell line. As to the kind of experiment: Cell-based assays of c-Kit mutant kinase activity (cell growth, ATPlite). Conditions: at least one of the c-kit cell assays of Example 26. In a few lines:
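BaF3 cells dependent on full-length human KIT (D816V or V560G/D816V) seeded at 1×10^4 cells/well in RPMI with 10% FBS. Eight-point 1:3 dilutions from 10 μM top final (0.2% DMSO), 3 days at 37° C., 5% CO2. ATPlite luminescence gave IC50.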

The IC50 is the concentration at which inhibition is half-maximal. Higher therefore signals lower potency.

A value given as a limit tells only on which side of the number the result lay.

c-kit kinase, sequence (P10721 26-976): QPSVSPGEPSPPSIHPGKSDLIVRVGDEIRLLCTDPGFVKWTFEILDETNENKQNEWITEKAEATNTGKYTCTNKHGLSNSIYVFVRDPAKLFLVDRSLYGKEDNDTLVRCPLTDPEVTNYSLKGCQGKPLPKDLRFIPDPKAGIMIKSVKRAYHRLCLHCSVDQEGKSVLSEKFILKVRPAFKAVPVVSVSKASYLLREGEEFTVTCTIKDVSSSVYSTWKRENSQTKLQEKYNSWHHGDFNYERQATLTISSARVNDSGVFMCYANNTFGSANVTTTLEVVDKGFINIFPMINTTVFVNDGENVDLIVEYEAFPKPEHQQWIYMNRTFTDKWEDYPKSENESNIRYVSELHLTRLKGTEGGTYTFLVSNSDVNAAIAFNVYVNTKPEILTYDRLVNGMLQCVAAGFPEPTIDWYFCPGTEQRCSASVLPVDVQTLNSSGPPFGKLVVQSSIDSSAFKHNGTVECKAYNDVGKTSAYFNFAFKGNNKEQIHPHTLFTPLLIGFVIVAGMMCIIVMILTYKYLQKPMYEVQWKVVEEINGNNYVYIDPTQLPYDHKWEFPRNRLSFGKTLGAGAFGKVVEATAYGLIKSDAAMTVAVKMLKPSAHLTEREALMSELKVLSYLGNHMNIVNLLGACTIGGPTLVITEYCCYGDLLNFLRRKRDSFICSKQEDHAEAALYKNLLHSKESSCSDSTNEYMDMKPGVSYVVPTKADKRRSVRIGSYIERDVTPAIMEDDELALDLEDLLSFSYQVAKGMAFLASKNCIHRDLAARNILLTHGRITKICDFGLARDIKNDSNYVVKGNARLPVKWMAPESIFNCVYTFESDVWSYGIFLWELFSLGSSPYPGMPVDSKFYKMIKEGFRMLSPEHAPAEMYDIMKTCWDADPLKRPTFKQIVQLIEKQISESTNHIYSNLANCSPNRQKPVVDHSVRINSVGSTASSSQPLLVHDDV

In the case of `O=C(Nc1cnc2[nH]c(-c3ccccc3)cc2c1)c1[nH]ncc1Br` [P-2005, 4-bromo-N-(2-phenyl-1H-pyrrolo[2,3-b]pyridin-5-yl)-1H-pyrazole-5-carboxamide], the figures for the IC50 (at c-kit kinase; in assay [1]) were 1 to 10 µM and below 10 µM, respectively.

Turning to `Cc1n[nH]c(C(=O)Nc2cnc3[nH]c(-c4ccccc4)cc3c2)c1C` [P-2007, 3,4-dimethyl-N-(2-phenyl-1H-pyrrolo[2,3-b]pyridin-5-yl)-1H-pyrazole-5-carboxamide], the IC50 against c-kit kinase was 0.0001 to 1 µM; in assay [1] it was below 10 µM.

Regarding `Cc1[nH]nc(C(=O)Nc2cnc3[nH]c(-c4ccc(N5CCOCC5)cc4)cc3c2)c1C` [P-2059, 4,5-dimethyl-N-[2-(4-morpholinophenyl)-1H-pyrrolo[2,3-b]pyridin-5-yl]-1H-pyrazole-3-carboxamide], the IC50 on c-kit kinase was 0.0001 to 1 µM; in assay [1], below 10 µM.

Regarding `Cc1n[nH]c(C(=O)Nc2cnc3[nH]c(C4=CCN(C(=O)C5CC5)C4)cc3c2)c1Cl` [P-2060, 4-chloro-N-[2-[1-(cyclopropanecarbonyl)-2,5-dihydropyrrol-3-yl]-1H-pyrrolo[2,3-b]pyridin-5-yl]-3-methyl-1H-pyrazole-5-carboxamide], the IC50 is 0.0001 to 1 µM at c-kit kinase and below 10 µM in assay [1].

Turning to `CC(=O)N1CC=C(c2cc3cc(NC(=O)c4[nH]nc(C)c4Cl)cnc3[nH]2)CC1` [P-2061, N-[2-(1-acetyl-3,6-dihydro-2H-pyridin-4-yl)-1H-pyrrolo[2,3-b]pyridin-5-yl]-4-chloro-3-methyl-1H-pyrazole-5-carboxamide], the IC50 against c-kit kinase is 0.0001 to 1 µM; in assay [1], below 10 µM.

With `Cc1n[nH]c(C(=O)Nc2cnc3[nH]c(C4=CCN(C(=O)N5CCOCC5)C4)cc3c2)c1Cl` [P-2062, 4-chloro-3-methyl-N-[2-[1-(morpholine-4-carbonyl)-2,5-dihydropyrrol-3-yl]-1H-pyrrolo[2,3-b]pyridin-5-yl]-1H-pyrazole-5-carboxamide], the IC50 on c-kit kinase is 0.0001 to 1 µM; in assay [1], below 10 µM.

As for `Cc1n[nH]c(C(=O)Nc2cnc3[nH]c(-c4cccc(N(C)C)c4)cc3c2)c1C` [P-2064, N-[2-[3-(dimethylamino)phenyl]-1H-pyrrolo[2,3-b]pyridin-5-yl]-3,4-dimethyl-1H-pyrazole-5-carboxamide], the IC50 was 0.0001 to 1 µM at c-kit kinase and below 10 µM in assay [1].

As to `Cc1n[nH]c(C(=O)Nc2cnc3[nH]c(-c4c(C)noc4C)cc3c2)c1C` [P-2065, N-[2-(3,5-dimethylisoxazol-4-yl)-1H-pyrrolo[2,3-b]pyridin-5-yl]-3,4-dimethyl-1H-pyrazole-5-carboxamide], the IC50 against c-kit kinase was 1 to 10 µM; in assay [1], below 10 µM.

`CNC(=O)c1ccc(-c2cc3cc(NC(=O)c4[nH]nc(C)c4C)cnc3[nH]2)cc1` [P-2067, 3,4-dimethyl-N-[2-[4-(methylcarbamoyl)phenyl]-1H-pyrrolo[2,3-b]pyridin-5-yl]-1H-pyrazole-5-carboxamide]: the IC50 is 1 to 10 µM against c-kit kinase and below 10 µM in assay [1].

With `Cc1[nH]nc(C(=O)Nc2cnc3[nH]c(-c4ccnc(N5CCN(C)CC5)c4)cc3c2)c1C` [P-2069, 4,5-dimethyl-N-[2-[2-(4-methylpiperazin-1-yl)-4-pyridyl]-1H-pyrrolo[2,3-b]pyridin-5-yl]-1H-pyrazole-3-carboxamide], the results for the IC50 (on c-kit kinase; in assay [1]) were 1 to 10 µM and below 10 µM, respectively.

In the case of `Cc1[nH]nc(C(=O)Nc2cnc3[nH]c(-c4cccc(N5CCOCC5)c4)cc3c2)c1C` [P-2070, 4,5-dimethyl-N-[2-(3-morpholinophenyl)-1H-pyrrolo[2,3-b]pyridin-5-yl]-1H-pyrazole-3-carboxamide], the IC50 was 1 to 10 µM on c-kit kinase and below 10 µM in assay [1].

`Cc1n[nH]c(C(=O)Nc2cnc3[nH]c(C4=CCN(C(=O)CN5CCOCC5)CC4)cc3c2)c1C` [P-2073, 3,4-dimethyl-N-[2-[1-(2-morpholinoacetyl)-3,6-dihydro-2H-pyridin-4-yl]-1H-pyrrolo[2,3-b]pyridin-5-yl]-1H-pyrazole-5-carboxamide]: the IC50 against c-kit kinase is 1 to 10 µM; in assay [1], below 10 µM.

For the compound `Cc1n[nH]c(C(=O)Nc2cnc3[nH]c(C4=CCN(C(=O)C(O)CO)CC4)cc3c2)c1C` (stereo not drawn) [P-2074, N-[2-[1-(2,3-dihydroxypropanoyl)-3,6-dihydro-2H-pyridin-4-yl]-1H-pyrrolo[2,3-b]pyridin-5-yl]-3,4-dimethyl-1H-pyrazole-5-carboxamide], the values for the IC50 (against c-kit kinase; in assay [1]) were 0.0001 to 1 µM and below 10 µM, respectively.

Consider `Cc1n[nH]c(C(=O)Nc2cnc3[nH]c(-c4cccc(N5CCCC5)c4)cc3c2)c1C` [P-2079, 3,4-dimethyl-N-[2-(3-pyrrolidin-1-ylphenyl)-1H-pyrrolo[2,3-b]pyridin-5-yl]-1H-pyrazole-5-carboxamide], for which the IC50 was 1 to 10 µM on c-kit kinase and below 10 µM in assay [1].

Consider `Cc1n[nH]c(C(=O)Nc2cnc3[nH]c(C4=CCC(N)CC4)cc3c2)c1C` (stereo not drawn) [P-2080, N-[2-(4-aminocyclohexen-1-yl)-1H-pyrrolo[2,3-b]pyridin-5-yl]-3,4-dimethyl-1H-pyrazole-5-carboxamide], for which the IC50 against c-kit kinase was 1 to 10 µM; in assay [1], below 10 µM.

`Cc1n[nH]c(C(=O)Nc2cnc3[nH]c(-c4ccc(C#N)c(N5CCOCC5)c4)cc3c2)c1C` [P-2081, N-[2-(4-cyano-3-morpholino-phenyl)-1H-pyrrolo[2,3-b]pyridin-5-yl]-3,4-dimethyl-1H-pyrazole-5-carboxamide]: the IC50 is 1 to 10 µM at c-kit kinase and below 10 µM in assay [1].

For the compound `Cc1n[nH]c(C(=O)Nc2cnc3[nH]c(-n4cccn4)cc3c2)c1C` [P-2112, 3,4-dimethyl-N-(2-pyrazol-1-yl-1H-pyrrolo[2,3-b]pyridin-5-yl)-1H-pyrazole-5-carboxamide], the IC50 against c-kit kinase was 1 to 10 µM; in assay [1] it was below 10 µM.

For the compound `Cc1cc(C(=O)Nc2cnc3[nH]c(-n4cccn4)cc3c2)[nH]n1` [P-2116, 3-methyl-N-(2-pyrazol-1-yl-1H-pyrrolo[2,3-b]pyridin-5-yl)-1H-pyrazole-5-carboxamide], the figures for the IC50 (against c-kit kinase; in assay [1]) were 10 to 200 µM and below 10 µM, respectively.

Take `Cc1n[nH]c(C(=O)Nc2cnc3[nH]c(-c4cccc(N5CCN(C(=O)C6CC6)CC5)c4)cc3c2)c1C` [P-2118, N-[2-[3-[4-(cyclopropanecarbonyl)piperazin-1-yl]phenyl]-1H-pyrrolo[2,3-b]pyridin-5-yl]-3,4-dimethyl-1H-pyrazole-5-carboxamide]: the IC50 against c-kit kinase was 10 to 200 µM; in assay [1] it was below 10 µM.

Turning to `Cc1n[nH]c(C(=O)Nc2cnc3sc(-c4ccccc4)nc3c2)c1C` [P-2144, 3,4-dimethyl-N-(2-phenylthiazolo[5,4-b]pyridin-6-yl)-1H-pyrazole-5-carboxamide], the IC50 against c-kit kinase is 1 to 10 µM; in assay [1] it was below 10 µM.

With `Cc1n[nH]c(C(=O)Nc2cnc3[nH]c(-c4ccc(C(=O)NC5CC5)cc4)cc3c2)c1C` [P-2148, N-[2-[4-(cyclopropylcarbamoyl)phenyl]-1H-pyrrolo[2,3-b]pyridin-5-yl]-3,4-dimethyl-1H-pyrazole-5-carboxamide], the results for the IC50 (against c-kit kinase; in assay [1]) were 0.0001 to 1 µM and below 10 µM, respectively.

For the origin of these results see patent US10301280B2 (Plexxikon Inc., priority 2012, dated 2019).
